In patent publication US7763626B2, “Compositions and method for enhancing the therapeutic activity of opiods in treatment of pain” (Trustees of Dartmouth College, priority 2004, dated 2010):

Legend:
Format in all cases: in vivo, rat
Male Sprague-Dawley rats [1] = test: Hot water tail-flick test, morphine withdrawal-induced thermal hyperalgesia
Method: (§1) Male Sprague-Dawley rats (175-200 grams, Harlan, Indianapolis, Ind.) were divided into two groups (n=8 per group). Rats received subcutaneous injections of either saline or morphine (10 mg/kg; Sigma, St. Louis, Mo.) twice daily at 0800 to 0900 and 1600-1700 hour for 5 days in order to induce opioid tolerance. Chronic morphine withdrawal-induced hyperalgesia and allodynia were assessed in the animals 16 hours after the last injection of morphine. Following the recording of morphine withdrawal-induced hyperalgesia and allodynia, animals were treated with morphine (5 microgram) acutely via lumbar intrathecal injection to study the expression of morphine tolerance. Acute analgesic activity or intrathecal morphine in morphine-tolerant and chronic aline-treated rats were evaluated by mechanical (Analgesy-Meter) and thermal (tail-flick) test paradigms. Behaviors recorded prior to the acute administration of intrathecal morphine served as the basal latency measures.
(§2) With an understanding of the effects of morphine alone, separate groups of rats (n=8) received with saline or morphine (10 mg/kg subcutaneously, twice daily for 5 days) and also received once daily injections (at 1100 to 1200 hour) of propentofylline (1 and 10 micrograms) or saline via direct lumbar puncture during the induction of morphine tolerance. Again, chronic morphine withdrawal-induced hyperalgesia and allodynia were assessed in the animals 16 hours after the last subcutaneous morphine injection. Following the recording of morphine withdrawal-induced hyperalgesia and allodynia, animals were treated with morphine (5 micrograms) acutely via lumbar puncture to study the expression of morphine tolerance. As before, the acute analgesic activity of intrathecal morphine in morphine-tolerant and saline-injected rats was evaluated by mechanical (Analgesy-Meter) and thermal (tail-flick) test paradigms. Behavior recorded prior to the acute administration of intrathecal morphine served as the basal latency.
Thermal nociceptive thresholds were evaluated by the hot water tail-flick test that has been described previously (Bian, D. et al. 1999. Brain Res. 831:55-63). The test consisted of immersing the tail of the rats in water maintained at 49° C. and then recording the latency to a rapid flick. A 15 second cut-off time was used. Again, the total number of responses elicited during three successive trials separated by at least 10 minutes was recorded and then expressed as the % maximal possible effect. The tester was again blinded to the test groups.

Male Sprague-Dawley rats [2] = test: Paw pressure test (Analgesy-Meter), morphine withdrawal-induced mechanical hyperalgesia
Method: as §1, §2
(§3) In blinded testing, rats were subjected to sequential series of 10 tactile stimulations to the dorsal surface of the ipsilateral hindpaw using […] von Frey filaments (Stoelting Co., WoodDale, Ill.) sequentially. The number of foot withdrawals to this normally non-noxious stimulus determined mechanical allodynia. Mechanical sensitivity was assessed by recording the total number of responses elicited during three successive trials separated by at least 10 minutes. The pressure required to elicit paw withdrawal, the paw pressure threshold was determined.

Male Sprague-Dawley rats [3] = test: Mechanical allodynia (von Frey filaments), morphine withdrawal
Method: as §1, §2
Mechanical sensitivity was measured as the frequency of foot withdrawals elicited by a defined mechanical stimulus. Each rat, under unrestrained conditions, was placed beneath an inverted, ventilated Plexiglas cage upon an elevated aluminum screen surface with 1 cm mesh openings. Animals had been previously acclimated to the environment and the experimenter.
as §3

Male Sprague-Dawley rats [4] = test: Morphine tolerance model, acute intrathecal morphine evaluated by thermal and mechanical test paradigms
Method: as §1
as §2, with “Following the recording of morphine withdrawal-induced hyperalgesia and allodynia, animals were treated with morphine (5 micrograms) acutely via lumbar puncture to study the expression of morphine tolerance.” left out
as §3
Thermal nociceptive thresholds were evaluated by the hot water tail-flick test that has been described previously (Bian, D. et al. 1999. Brain Res. 831:55-63). […] Again, the total number of responses elicited during three successive trials separated by at least 10 minutes was recorded and then expressed as the % maximal possible effect. […]

IL-6 mRNA = test: RNase protection assay, cytokine mRNA at L5 lumbar spinal cord; conditions: propentofylline 10 micrograms intrathecally for 5 days during induction of morphine tolerance
Method: After behavioral testing for reactions to the combined treatment, rats were sacrificed and decapitated. An 18-gauge needle was inserted into the caudal end of the vertebral column and the spinal cord was expelled with ice-cold phosphate-buffered saline. The spinal cord was frozen immediately on dry ice and stored at −80° C. until homogenization. The L5 lumbar spinal cord was isolated from the intact frozen cord at the time of mRNA and protein quantification. Total RNA was isolated from the L5 spinal cord by the TRIzol extraction method (Invitrogen Corporation, Carlsbad, Calif).
Assessment of the temporal cytokine mRNA expression in the L5 lumber spinal cord was performed using a Ribonuclease Protection Assay technique. A Multiprobe RPAse kit was used (Pharmingen, San Diego, Calif.). Total RNA (15 μg) was hybridized to ^32P-labeled antisense RNA probes transcribed using the rat cytokine-1 (rCK-1) multiprobe template set resulting in double-stranded target RNA. After Rnase digestion, protected RNA and probe were resolved on a denaturing polyacrylamide gel and visualized by overnight autoradiography. Quantitative image analysis was employed to compare mRNA levels based on band intensities for each cytokine. The intensity of each band was measured using image analysis software and assigned an arbitrary unit based on the measured intensity levels. The value for the normalized quantity for each band was obtained by dividing by the L32 house-keeping gene control. Individual mRNA concentration was calculated as the ratio of the expression compared with saline-treated animals in which normal values were weighted as 1.

GLAST protein = test: Western blot analysis of ipsilateral lumbar spinal cord; conditions: day 4
Method: (§4) Experiments were performed to determine how propentofylline-induced suppression of glial activation contribute to reduced behavioral hypersensitivity after nerve injury. In a preventative paradigm, 10 μg of propentofylline (Sigma) to male Sprague-Dawley rats in 40 μl of sterile saline, or saline vehicle alone was administered intrathecally (i.t.) by lumbar puncture at the L4/5 level under brief halothane anesthesia (n=6-8/group). Treatment began one hour prior to L5 spinal nerve transection and continued daily in the evening until day 4 or 12 post-transection. Rats received either an L5 spinal nerve transection or sham surgery on day 0. The development of mechanical allodynia was monitored as described above in the morning at approximately 15 hours post-propentofylline or saline injection. Rats were euthanized on day 4 or 12 post-transection and tissue was further processed by real time RT-PCR, Western blot, or immunohistochemistry for determination of levels and rate of synthesis of the glutamate transporters GLT-1 and GLAST.
(§5) Tissue was collected from 4-5 rats/group on postoperative days 4 or 12. […]
(§6) Protein obtained from L5 lumbar spinal cord was quantified using the Lowry method (DC assay, Bio-Rad, Richmond, Calif.). […]

GLT-1 protein = test: as above; conditions: day 12
Method: as §4, §5, §6

[5] = 16 hours after last injection, morphine 10 mg/kg s.c. twice daily 5 days and/or propentofylline 10 micrograms intrathecally once daily 5 days
[6] = 16 hours after last morphine injection (10 mg/kg s.c. twice daily 5 days), propentofylline 1 and 10 micrograms intrathecally for 5 days during induction of tolerance
[7] = propentofylline 10 micrograms intrathecally for 5 days

Structure (SMILES): CCCn1cnc2c1c(=O)n(CCCCC(C)=O)c(=O)n2C [propentofylline]
- Tail-flick latency (Male Sprague-Dawley rats [1]; [5]): 5.1 ± 0.3 s
- morphine withdrawal-induced noxious thermal hyperalgesia (Male Sprague-Dawley rats [1]; [6]): significantly attenuated
- Paw pressure latency (Male Sprague-Dawley rats [2]; [5]): 119.4 ± 5.4 grams
- morphine withdrawal-induced mechanical hyperalgesia (Male Sprague-Dawley rats [2]; [6]): significantly attenuated
- morphine withdrawal-induced mechanical allodynia (Male Sprague-Dawley rats [3]; [6]): significantly attenuated
- Mechanical allodynia (2 grams) (Male Sprague-Dawley rats [3]; number of foot withdrawals, 2 grams von Frey filament, morphine 10 mg/kg s.c. twice daily 5 days and/or propentofylline 10 micrograms intrathecally): 0
- Mechanical allodynia (12 grams) (Male Sprague-Dawley rats [3]; number of foot withdrawals, 12 grams von Frey filament, morphine 10 mg/kg s.c. twice daily 5 days and/or propentofylline 10 micrograms intrathecally): 0
- expression of spinal nociceptive tolerance to intrathecal morphine (5 micrograms) (Male Sprague-Dawley rats [4]; propentofylline 1 and 10 micrograms intrathecally for 5 days during induction of morphine tolerance, thermal and mechanical test paradigms): significantly attenuated
- anti-nociceptive activity of acute intrathecal morphine (5 micrograms) in chronic saline-treated rats (Male Sprague-Dawley rats [4]; [7]): no effect
- nociceptive threshold in saline-treated rats (Male Sprague-Dawley rats [4]; [7]): no effect
- morphine-induced mRNA upregulation for IL-6 (IL-6 mRNA): significantly attenuated
- GLAST protein compared with saline-treated injured rats (GLAST protein): significant decrease
- GLT-1 protein compared with L5 spinal nerve transection alone (GLT-1 protein): significantly elevated
